# According to patent US20260151316A1, “FIBRILLIN PRODUCTION PROMOTER, COSMETIC COMPOSITION OR SKIN TOPICAL AGENT, ORALLY ADMINISTERED AGENT, AND ELASTIN FIBER PRODUCTION PROMOTER” (YAMASA CORPORATION, priority 2022, published 2026):
# Tests used:
# [1] = test system: Fibrillin-1 (FBN-1) mRNA in normal human fibroblasts; test: FBN-1 mRNA expression by real time PCR in fibroblasts treated with culture supernatant from three-dimensional cultured epidermis; assay type: cell-based; details: CMP, 2Na 1.0 and 2.0 (w/v %) applied to three-dimensional cultured epidermis; supernatant on NHDF; GAPDH as control
# Description: The mRNA expression level of Fibrillin 1(FBN1 ), a factor related to elastin synthesis, was quantified by real-time PCR. Three-dimensional cultured epidermis (LabCyte EPI MODEL 24; manufactured by J TEC) was set in a 24-well plate to which 500 μL of the attached assay medium was added, and conditioned overnight at 37° C. 50 μL of sample-containing PBS (−) was applied from the stratum corneum side and cultured for 24 hours. After removing the sample-containing PBS (−), the plate was washed with PBS (−). The medium was replaced with a fresh medium, 50 μL of sample-containing PBS (−) was newly applied from the stratum corneum side, and further cultured for 48 hours. After culturing, the culture supernatant was collected. The concentrations of CMP, 2Na in the respective samples were 0, 1.0, and 2.0 (w/v %), respectively. Normal human fibroblasts were treated with the culture supernatant by the same method as that of Example 1. RNA was extracted from NHDF using RNeasy Mini Kit (QIAGEN), and mRNA expression analysis for Fibrillin-1 (FBN-1) was performed by real time PCR ([…]). Glyceraldehyde 3-phosphate dehydrogenase (GAPDH) was used as an endogenous control.
# [2] = test system: elastin fibers in freshly extracted human skin; test: Ex vivo evaluation test using freshly extracted human skin, elastica-van Gieson staining of elastin fibers; details: abdominal skin, CMP, 2Na 1.0 and 2.0 (w/v %) applied from the stratum corneum side, 72 hours
# Description: Abdominal skin tissue was used, which was taken from a patient during cosmetic surgery, after obtaining informed consent for use in research. The extracted skin was placed in a culture plate supplemented with 1.3 ml of D-MEM/Ham's F-12 medium, and conditioned overnight at 37° C. in 5% CO2. An appropriate amount of PBS (−) containing a given concentration of each sample was applied from the stratum corneum side, and further cultured for 24 hours. The treatment was continued for a total of 72 hours while replacing the sample and medium with fresh ones every 24 hours. The concentrations of CMP, 2Na in the respective samples were 0, 1.0, and 2.0 (w/v %). After the cultured skin tissue was fixed according to a standard method, skin tissue sections were prepared, elastin fibers were stained with elastica-van Gieson stain, and observed under a microscope.
# [3] = test system: fibrillin-1 production in normal human fibroblasts (NHDF); test: Fibrillin-1 quantification by ELISA, direct treatment of normal human fibroblasts with sample; assay type: cell-based; details: Example 1, FIG. 1 versus FIG. 2 (direct treatment and K-CM)
# Description: Normal human fibroblasts (NHDF; Kurabo) were seeded in a 96-well plate at a density of 2.55×10^4 cells/well/100 μL and cultured at 37° C. for 24 hours. The medium was then replaced with 100 μL of media (HuMedia-KG2; Kurabo) adjusted to contain 0, 2.5, 5 (mM) (i.e., 0, 0.0918, 0.184 (w/v %) ) of CMP, 2Na and 0, 2.5, 5 (MM) (i.e., 0, 0.092, 0.184 (w/v %) ) of UMP, 2Na, and cultured for 24 hours.
# The culture supernatant from normal human fibroblasts was collected and an amount of fibrillin-1 was quantified by ELISA. The protein amount of the culture supernatant was also measured by BCA protein assay.
smiles,measurement,setting,value
Nc1ccn([C@@H]2O[C@H](COP(=O)(O)O)[C@@H](O)[C@H]2O)c(=O)n1 [cytidylic acid],expression level of FBN-1 mRNA,[1],"increased, depending on the concentration"
same,density of elastin fibers (elastica-van Gieson staining),[2],tended to result in denser elastin fibers
same,"effect of promoting fibrillin production, cytidylic acid treatment compared with uridylic acid treatment",[3],comparable
O=c1ccn([C@@H]2O[C@H](COP(=O)(O)O)[C@@H](O)[C@H]2O)c(=O)[nH]1 [uridylic acid],"effect of promoting fibrillin production, cytidylic acid treatment compared with uridylic acid treatment",[3],comparable
